According to patent US20190315711A1 (eXIthera Pharmaceuticals, Inc., priority 2016, published 2019):

Legend:
Factor Xa = target: T1, Factor Xa (Homo sapiens, UniProt P00742); test: Dose response assay for protease inhibitors: Factor Xa; type: biochemical; details: ratio versus Factor XIa
T1 construct: Factor Xa; 0.2 μM in 50% glycerol (9.2 μg/mL)

Trypsin = target: T2, Trypsin (Bos taurus, UniProt P00760); test: Dose response assay for protease inhibitors: trypsin; type: biochemical; details: ratio versus Factor XIa
T2 construct: gene PRSS1
T2 sequence (P00760 24-246): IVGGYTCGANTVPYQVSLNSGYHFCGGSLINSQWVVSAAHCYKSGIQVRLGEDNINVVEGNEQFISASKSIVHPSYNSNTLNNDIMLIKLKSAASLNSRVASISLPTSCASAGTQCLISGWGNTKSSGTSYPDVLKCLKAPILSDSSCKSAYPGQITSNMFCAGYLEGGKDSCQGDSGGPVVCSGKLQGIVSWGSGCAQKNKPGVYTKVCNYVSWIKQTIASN

[1] = Metabolic stability in dog hepatocytes; type: in vitro ADME; details: pooled cryopreserved hepatocytes; beagle dog hepatocytes, 2 μM compound, 500,000 cells/mL, 37° C.; read-out: Dog Hepatocyte Stability (T½: min)
Experimental: The following procedure was used to determine the stability of test compounds in beagle dog hepatocytes in a 96-well plate format. The test compounds, including the controls, imipramine and 7-ethoxycoumarin, were dissolved at 10 mM in DMSO, followed by further 5-fold dilution with DMSO to 2 mM. Pooled cryopreserved beagle dog hepatocytes were thawed and transferred into complete medium. Cells were gently centrifuged (700 rpm for 5 min) and the pellet rinsed with KHB (Krebs Henseleit buffer). Cells were resuspended, counted using Trypan blue, and adjusted to 1 million cells/mL in KHB buffer. The 2 mM compound stock solutions were diluted 10-fold with acetonitrile, followed by a further 50-fold dilution with KHB buffer. 200 μL of these compound solutions were transferred to 96-well polypropylene assay plates and an equal volume of the hepatocyte solution was added and mixed to initiate the reaction (final assay concentrations were 2 μM compound and 500,000 cells/mL). Assay plates were incubated at 37° C. in 5% CO2 with gentle agitation. 50 μL aliquots were removed at multiple time points out to 180 minutes and quenched with 6 volumes of cold acetonitrile (containing 250 ng/mL of carbutamide and chrysin as internal standards) to terminate the reaction and precipitate protein. Quenched samples were maintained on ice. The quenched samples were centrifuged at 2000×g (3100 rpm) for 10 minutes at 4° C. 50 μL aliquots of the supernatants were removed and diluted with 100 μL Milli-Q water to reduce the % organic content prior to bioanalysis by LC-MS/MS. Peak areas corresponding to the test compound were recorded. The compound remaining was calculated by comparing the peak area at each time point to time zero. Data were analyzed and results were calculated using Microsoft Excel 2010.

Thrombin = target: T3, Thrombin (Homo sapiens, UniProt P00734); test: Dose response assay for protease inhibitors: thrombin; type: biochemical; details: ratio versus Factor XIa
T3 construct: Thrombin; 0.2 μM in 50% glycerol (7.34 μg/mL)

human Factor XIa = human Factor XIa (Homo sapiens, UniProt P03951); test: Factor XIa enzyme inhibition assay (dose response, fluorogenic AMC substrate); type: biochemical; parameters: Enzyme: Factor XIa; details: purified enzyme; substrate 50 μM, enzyme 0.25 nM; read-out: hFXIa IC50
In short: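 Fluorogenic assay in 20 mM Hepes pH 7.4, 150 mM NaCl, 0.02% Tween 20 with 0.25 nM enzyme and 50 μM Glp-Pro-Arg-AMC (final). Fluorescence read every minute for 30 min at 30 °C after serial two-fold compound dilution; IC50 from four-parameter Hill fit of dose-response curves.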

Sequence of human Factor XIa (P03951 388-625 limits assumed): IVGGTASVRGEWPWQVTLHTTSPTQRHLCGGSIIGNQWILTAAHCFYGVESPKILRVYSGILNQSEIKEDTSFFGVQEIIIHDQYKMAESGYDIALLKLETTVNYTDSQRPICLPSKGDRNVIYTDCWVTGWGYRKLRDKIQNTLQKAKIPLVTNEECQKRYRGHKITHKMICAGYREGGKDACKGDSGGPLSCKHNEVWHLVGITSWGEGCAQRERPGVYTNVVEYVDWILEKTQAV
Sequence of human Factor XIa (P03951 19-387 partner limits assumed): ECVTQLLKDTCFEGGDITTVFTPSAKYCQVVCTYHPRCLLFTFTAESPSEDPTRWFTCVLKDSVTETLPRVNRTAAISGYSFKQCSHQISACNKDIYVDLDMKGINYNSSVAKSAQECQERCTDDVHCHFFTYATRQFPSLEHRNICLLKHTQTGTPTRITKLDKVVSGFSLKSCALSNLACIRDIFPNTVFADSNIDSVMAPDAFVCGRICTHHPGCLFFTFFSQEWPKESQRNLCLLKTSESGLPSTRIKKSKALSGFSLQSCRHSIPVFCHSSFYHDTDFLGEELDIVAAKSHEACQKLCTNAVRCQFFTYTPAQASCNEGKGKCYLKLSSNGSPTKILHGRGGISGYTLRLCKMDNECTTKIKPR
T1 sequence (P00742 235-488 limits assumed): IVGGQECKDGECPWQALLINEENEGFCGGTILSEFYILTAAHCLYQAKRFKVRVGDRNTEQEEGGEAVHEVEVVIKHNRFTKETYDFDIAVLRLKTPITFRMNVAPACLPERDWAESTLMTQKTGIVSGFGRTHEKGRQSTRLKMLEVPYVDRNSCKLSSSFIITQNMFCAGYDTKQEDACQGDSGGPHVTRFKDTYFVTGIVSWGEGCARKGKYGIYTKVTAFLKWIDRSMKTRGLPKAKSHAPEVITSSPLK
T1 sequence (P00742 41-179 partner limits assumed): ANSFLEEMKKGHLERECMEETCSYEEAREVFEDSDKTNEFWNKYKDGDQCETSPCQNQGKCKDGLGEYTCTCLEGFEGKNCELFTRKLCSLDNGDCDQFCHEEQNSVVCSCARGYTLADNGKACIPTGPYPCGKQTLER

| SMILES | FXa/FXIa (selectivity ratio) (Factor Xa) | Ratio: Trypsin/FXIa (Trypsin) | half-life at 2 μM [1] [h] | Ratio: Thrombin/FXIa (Thrombin) | IC50 (human Factor XIa) [nM] |
| --- | --- | --- | --- | --- | --- |
| CN(C(=O)[C@@H]1[C@@H](Cc2ccnc(N)c2)C(=O)N1C(=O)N[C@@H](C1CCCCC1)C1CC1)c1ccncc1 [Compound 52] | I (“I” indicates >500) | G (“G” indicates 1-100) | < 1 | H (“H” indicates 101-1000) | < 10 |
| CC[C@@H](NC(=O)N1C(=O)[C@H](Cc2ccnc(N)c2)[C@H]1C(=O)N(C)c1ncccn1)c1cccnc1 [Compound 61] | H (“H” indicates 101-1000) | G (“G” indicates 1-100) | 2.02 to 4 | H (“H” indicates 101-1000) | < 10 |
| CC[C@@H](NC(=O)N1C(=O)[C@H](Cc2ccnc(NC)c2)[C@H]1C(=O)N(C)c1ncccn1)C1CCCCC1 [Compound 80] | I (“I” indicates >500) | G (“G” indicates 1-100) | < 1 | H (“H” indicates 101-1000) | < 10 |
| CC[C@@H](NC(=O)N1C(=O)[C@H](Cc2ccnc(N)c2)[C@H]1C(=O)N(C)c1ncncn1)C1CCCCC1 [Compound 81] | I (“I” indicates >500) | H (“H” indicates 101-1000) | < 1 | H (“H” indicates 101-1000) | < 10 |
| CN(C(=O)[C@@H]1[C@@H](Cc2ccnc(N)c2)C(=O)N1C(=O)NC(c1ccccc1)c1ccccc1)c1ccncc1 [Compound 82] | I (“I” indicates >500) | G (“G” indicates 1-100) | 2.02 to 4 | H (“H” indicates 101-1000) | < 10 |
| CC[C@@H](NC(=O)N1C(=O)[C@H](Cc2ccnc(N)c2)[C@H]1C(=O)N(C)c1ncncn1)c1ccccc1 [Compound 83] | I (“I” indicates >500) | H (“H” indicates 101-1000) | < 1 | I (“I” indicates >500) | < 10 |
| CC[C@@H](NC(=O)N1C(=O)[C@H](Cc2ccnc(N)c2)[C@H]1C(=O)N(C)c1ncccn1)c1ccccc1 [Compound 84] | I (“I” indicates >500) | G (“G” indicates 1-100) | 1.02 to 2 | I (“I” indicates >500) | < 10 |
| CC[C@@H](NC(=O)N1C(=O)[C@H](Cc2cc(C)nc(N)c2)[C@H]1C(=O)N(C)c1ccccc1)C1CCCCC1 [Compound 91] | I (“I” indicates >500) | G (“G” indicates 1-100) | 1.02 to 2 | H (“H” indicates 101-1000) | < 10 |
| CC[C@@H](NC(=O)N1C(=O)[C@H](Cc2cc(C)nc(N)c2)[C@H]1C(=O)N(C)c1ccccc1)c1cccc(Cl)c1 [Compound 120] | I (“I” indicates >500) | G (“G” indicates 1-100) | 2.02 to 4 | H (“H” indicates 101-1000) | < 10 |
| CC[C@@H](NC(=O)N1C(=O)[C@H](Cc2ccnc(N)c2)[C@H]1C(=O)N(C)c1ncccn1)c1cccc(Cl)c1 [Compound 121] | I (“I” indicates >500) | G (“G” indicates 1-100) | < 1 | H (“H” indicates 101-1000) | < 10 |
| CC[C@@H](NC(=O)N1C(=O)[C@H](Cc2ccnc(NC(=O)OC(C)(C)C)c2)[C@H]1C(=O)N(C)c1ccncc1)c1cccc(Cl)c1 [Compound 127] | H (“H” indicates 101-1000) | H (“H” indicates 101-1000) | < 1 | H (“H” indicates 101-1000) | 10 to 100 |

Now from value to compound:

| FXa/FXIa (selectivity ratio) (Factor Xa) | Ratio: Trypsin/FXIa (Trypsin) | half-life at 2 μM [1] [h] | Ratio: Thrombin/FXIa (Thrombin) | IC50 (human Factor XIa) [nM] | SMILES |
| --- | --- | --- | --- | --- | --- |
| I (“I” indicates >500) | G (“G” indicates 1-100) | > 4 | H (“H” indicates 101-1000) | < 10 | CC[C@@H](NC(=O)N1C(=O)[C@H](Cc2ccnc(N)c2)[C@H]1C(=O)N(C)c1ccncc1)c1cccnc1 [Compound 59] |
| I (“I” indicates >500) | G (“G” indicates 1-100) | > 4 | I (“I” indicates >500) | < 10 | CCC[C@@H](NC(=O)N1C(=O)[C@H](Cc2ccnc(N)c2)[C@H]1C(=O)N(C)c1ccncc1)c1ccccc1 [Compound 86] |
| I (“I” indicates >500) | G (“G” indicates 1-100) | 2.02 to 4 | H (“H” indicates 101-1000) | < 10 | CC[C@@H](NC(=O)N1C(=O)[C@H](Cc2ccnc(N)c2)[C@H]1C(=O)N(C)c1ccncc1)c1cccc(C)c1 [Compound 87] |
| H (“H” indicates 101-1000) | G (“G” indicates 1-100) | > 4 | H (“H” indicates 101-1000) | < 10 | CC[C@@H](NC(=O)N1C(=O)[C@H](Cc2ccnc(N)c2)[C@H]1C(=O)N(C)c1ccncc1)c1ccc(Cl)cc1 [Compound 89] |
| I (“I” indicates >500) | G (“G” indicates 1-100) | 2.02 to 4 | H (“H” indicates 101-1000) | < 10 | CC[C@@H](NC(=O)N1C(=O)[C@H](Cc2ccnc(N)c2)[C@H]1C(=O)N(C)c1ccncc1)c1cccc(Cl)c1 [Compound 90] |
| I (“I” indicates >500) | G (“G” indicates 1-100) | 2.02 to 4 | H (“H” indicates 101-1000) | < 10 | CC[C@@H](NC(=O)N1C(=O)[C@H](Cc2ccnc(N)c2)[C@H]1C(=O)N(C)c1ccncc1)c1ccccc1Cl [Compound 95] |
| I (“I” indicates >500) | G (“G” indicates 1-100) | 2.02 to 4 | H (“H” indicates 101-1000) | < 10 | CC[C@H](NC(=O)N1C(=O)[C@H](Cc2ccnc(N)c2)[C@H]1C(=O)N(C)c1ccncc1)c1ccccc1C [Compound 97] |
| I (“I” indicates >500) | G (“G” indicates 1-100) | > 4 | H (“H” indicates 101-1000) | < 10 | CC[C@@H](NC(=O)N1C(=O)[C@H](Cc2ccnc(N)c2)[C@H]1C(=O)N(C)c1ccncc1)c1cccc(C#N)c1 [Compound 99] |
| H (“H” indicates 101-1000) | G (“G” indicates 1-100) | > 4 | H (“H” indicates 101-1000) | < 10 | CC[C@@H](NC(=O)N1C(=O)[C@H](Cc2ccnc(N)c2)[C@H]1C(=O)N(C)c1ccncc1)c1cccc(OC)c1 [Compound 100] |
